Laboratory results reported in ChEMBL document CHEMBL1140196, “Synthesis and biological activities of some new fluorinated coumarins and 1-aza coumarins” (Eur J Med Chem, 2008).
The source made the active and inactive calls. The calls are words filed in the database; no cut-off is given here.

How the values were obtained:
Format in all cases: functional
[1] = system: Escherichia coli; assay: Antibacterial activity against Escherichia coli at 50 ug/mL after 48 hrs by cup-plate method
[2] = system: Macrophomina phaseolina; assay: Antifungal activity against Rhizoctonia bataticola at 100 ug/mL after 48 hrs by cup-plate method
[3] = system: Bacillus; assay: Antibacterial activity against […] at 50 ug/mL after 48 hrs by cup-plate method
[4] = system: Escherichia coli; assay: Antibacterial activity against Escherichia coli at 100 ug/mL after 48 hrs by cup-plate method
[5] = system: Aspergillus niger; assay: Antifungal activity against Aspergillus niger at 100 ug/mL after 48 hrs by cup-plate method
[6] = system: Macrophomina phaseolina; assay: Antifungal activity against Rhizoctonia bataticola at 25 ug/mL after 48 hrs by cup-plate method
[7] = system: Aspergillus niger; assay: Antifungal activity against Aspergillus niger at 25 ug/mL after 48 hrs by cup-plate method; details: for zone of inhibition at 25 µg/mL: read-out: IZ
[8] = system: Escherichia coli; assay: Antibacterial activity against Escherichia coli at 25 ug/mL after 48 hrs by cup-plate method; details: for zone of inhibition at 25 µg/mL: read-out: IZ
[9] = system: Bacillus; assay: Antibacterial activity against […] at 100 ug/mL after 48 hrs by cup-plate method
[10] = system: Aspergillus niger; assay: Antifungal activity against Aspergillus niger at 50 ug/mL after 48 hrs by cup-plate method
[11] = system: Bacillus; assay: Antibacterial activity against […] at 25 ug/mL after 48 hrs by cup-plate method; details: for zone of inhibition at 25 µg/mL: read-out: IZ
[12] = system: Macrophomina phaseolina; assay: Antifungal activity against Rhizoctonia bataticola at 50 ug/mL after 48 hrs by cup-plate method; details: for zone of inhibition at 50 µg/mL: read-out: IZ

Structure (SMILES): O=c1cc(COc2ccc(Br)cc2)c2ccc(Cl)cc2[nH]1
- inhibition at 50 µg/mL [1]: 30%
- inhibition at 100 µg/mL [2]: 54%
- inhibition at 50 µg/mL [3]: 26%
- inhibition at 100 µg/mL [4]: 50%
- inhibition at 100 µg/mL [5]: 60%
- Activity [6]: inactive
- inhibition at 25 µg/mL [7]: 18%
- zone of inhibition at 25 µg/mL [7]: 46 mm
- Activity [8]: inactive
- inhibition at 100 µg/mL [9]: 60%
- inhibition at 50 µg/mL [10]: 35%
- Activity [11]: inactive
- inhibition at 50 µg/mL [12]: 31%
- zone of inhibition at 50 µg/mL [12]: 80 mm

Structure (SMILES): Cc1ccc2c(COc3ccc(Br)cc3)cc(=O)oc2c1
- inhibition at 50 µg/mL [1]: 37%
- inhibition at 100 µg/mL [2]: 57%
- inhibition at 50 µg/mL [3]: 37%
- inhibition at 100 µg/mL [4]: 66%
- inhibition at 100 µg/mL [5]: 52%
- Activity [6]: inactive
- Activity [7]: inactive
- inhibition at 25 µg/mL [8]: 20%
- zone of inhibition at 25 µg/mL [8]: 48 mm
- inhibition at 100 µg/mL [9]: 63%
- inhibition at 50 µg/mL [10]: 22%
- inhibition at 25 µg/mL [11]: 20%
- zone of inhibition at 25 µg/mL [11]: 48 mm
- inhibition at 50 µg/mL [12]: 32%
- zone of inhibition at 50 µg/mL [12]: 84 mm

Structure (SMILES): O=c1cc(COc2ccc(Br)cc2)c2cc(Cl)ccc2[nH]1
- inhibition at 50 µg/mL [1]: 30%
- inhibition at 100 µg/mL [2]: 55%
- inhibition at 50 µg/mL [3]: 25%
- inhibition at 100 µg/mL [4]: 50%
- inhibition at 100 µg/mL [5]: 62%
- Activity [6]: inactive
- inhibition at 25 µg/mL [7]: 21%
- zone of inhibition at 25 µg/mL [7]: 50 mm
- Activity [8]: inactive
- inhibition at 100 µg/mL [9]: 58%
- inhibition at 50 µg/mL [10]: 36%
- Activity [11]: inactive
- inhibition at 50 µg/mL [12]: 32%
- zone of inhibition at 50 µg/mL [12]: 82 mm

Structure (SMILES): Cc1ccc2c(CNc3ccc(Cl)cc3)cc(=O)oc2c1
- inhibition at 50 µg/mL [1]: 36%
- inhibition at 100 µg/mL [2]: 54%
- inhibition at 50 µg/mL [3]: 34%
- inhibition at 100 µg/mL [4]: 62%
- inhibition at 100 µg/mL [5]: 52%
- Activity [6]: inactive
- Activity [7]: inactive
- inhibition at 25 µg/mL [8]: 17%
- zone of inhibition at 25 µg/mL [8]: 44 mm
- inhibition at 100 µg/mL [9]: 60%
- inhibition at 50 µg/mL [10]: 21%
- inhibition at 25 µg/mL [11]: 17%
- zone of inhibition at 25 µg/mL [11]: 44 mm
- inhibition at 50 µg/mL [12]: 32%
- zone of inhibition at 50 µg/mL [12]: 84 mm

Structure (SMILES): CCn1cc(C(=O)O)c(=O)c2cc(F)c(N3CCNCC3)cc21 [NORFLOXACIN]
- inhibition at 50 µg/mL [1]: 100%
- inhibition at 100 µg/mL [2]: 100%
- inhibition at 50 µg/mL [3]: 100%
- inhibition at 100 µg/mL [4]: 100%
- inhibition at 100 µg/mL [5]: 100%
- inhibition at 25 µg/mL [6]: 100%
- inhibition at 25 µg/mL [7]: 100%
- inhibition at 25 µg/mL [8]: 100%
- inhibition at 100 µg/mL [9]: 100%
- inhibition at 50 µg/mL [10]: 100%
- inhibition at 25 µg/mL [11]: 100%
- inhibition at 50 µg/mL [12]: 100%

Structure (SMILES): O=c1cc(COc2ccc(Cl)cc2)c2ccc(Cl)cc2[nH]1
- inhibition at 50 µg/mL [1]: 27%
- inhibition at 100 µg/mL [2]: 51%
- inhibition at 50 µg/mL [3]: 25%
- inhibition at 100 µg/mL [4]: 48%
- inhibition at 100 µg/mL [5]: 50%
- Activity [6]: inactive
- Activity [7]: inactive
- Activity [8]: inactive
- inhibition at 100 µg/mL [9]: 56%
- inhibition at 50 µg/mL [10]: 21%
- Activity [11]: inactive
- inhibition at 50 µg/mL [12]: 35%
- zone of inhibition at 50 µg/mL [12]: 78 mm

Structure (SMILES): O=c1cc(CNc2ccc(F)cc2)c2ccccc2[nH]1
- inhibition at 50 µg/mL [1]: 34%
- inhibition at 100 µg/mL [2]: 60%
- inhibition at 50 µg/mL [3]: 36%
- inhibition at 100 µg/mL [4]: 57%
- inhibition at 100 µg/mL [5]: 63%
- inhibition at 25 µg/mL [6]: 21%
- inhibition at 25 µg/mL [7]: 24%
- zone of inhibition at 25 µg/mL [7]: 54 mm
- Activity [8]: inactive
- inhibition at 100 µg/mL [9]: 68%
- inhibition at 50 µg/mL [10]: 41%
- Activity [11]: inactive
- inhibition at 50 µg/mL [12]: 36%
- zone of inhibition at 50 µg/mL [12]: 90 mm

Structure (SMILES): CN(C)C=O [DIMETHYLFORMAMIDE]
- zone of inhibition at 100 µg/mL ([2]; read-out: IZ): 20 mm
- zone of inhibition at 100 µg/mL ([4]; read-out: IZ): 20 mm
- zone of inhibition at 100 µg/mL ([5]; read-out: IZ): 20 mm
- zone of inhibition at 25 µg/mL [7]: 20 mm
- zone of inhibition at 25 µg/mL [8]: 20 mm
- zone of inhibition at 100 µg/mL ([9]; read-out: IZ): 20 mm
- zone of inhibition at 25 µg/mL [11]: 20 mm
- zone of inhibition at 50 µg/mL [12]: 20 mm
